How the values were obtained:
human RORγ = target: T1, human RORγ (Homo sapiens, UniProt P51449); assay: RORγ assay (GAL4-RORγ hybrid luciferase reporter, inverse-agonist activity); type: cell-based; conditions: GAL4-RORγ hybrid reporter cells, 23 hours
T1 sequence (P51449 269-508 limits assumed): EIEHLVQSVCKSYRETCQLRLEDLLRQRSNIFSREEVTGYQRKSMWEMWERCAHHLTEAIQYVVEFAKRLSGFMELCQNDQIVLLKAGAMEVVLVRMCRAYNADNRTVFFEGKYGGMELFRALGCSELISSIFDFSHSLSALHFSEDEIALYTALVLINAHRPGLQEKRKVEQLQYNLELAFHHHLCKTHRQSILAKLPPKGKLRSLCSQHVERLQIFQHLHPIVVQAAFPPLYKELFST
Excerpt: C. RORγ Assay and Cell Viability
The RORγ assay system was purchased from Indigo Biosciences. This nuclear receptor assay utilizes a human cell line that has been engineered to express a hybrid form of the Human RAR-related Orphan Receptor Gamma (RORγ) at high levels. The N-terminal DNA binding domain (DBD) of the native RORγ receptor was substituted with the yeast GAL4-DBD to generate the GAL4-RORγ hybrid nuclear receptor. The reporter cell line is transfected with a plasmid that encodes the beetle luciferase gene under the control of the GAL4 upstream activating sequence (UAS). GAL4 binds to the UAS and increases transcription of downstream target genes. […] To assess the RORγ inverse-agonist activity of the test compounds, reporter cells were plated in white 96-well plates in triplicate and were treated with DMSO (vehicle) or test compound (concentration ranges of 0.4-200 nM or 2-1000 nM) at 37° C. with 5% CO2 in a humidified atmosphere for 23 hours. After this incubation, luciferin was added to the wells and luciferase activity was determined by measuring the luminescence signal using a BMG Pherastar microplate reader. Viability was determined using the Live Cell Multiplex Assay (Indigo Biosciences). Values from test compound samples were normalized to those from DMSO-treated samples. Data were analyzed using GraphPad Prism version 6.00 for Windows (GraphPad Software, La Jolla Calif. USA). A non-linear regression analysis with log (inhibitor) vs. normalized response using a variable slope was applied to fit the data and determine the IC50 values for inhibition of RORγ and cell viability.

NRF2 = assay: AREc32 luciferase reporter assay; type: cell-based, human; conditions: EC2×: concentration required to increase GST ARE Luciferase reporter activity by 2-fold; AREc32 cells, 19 hours
Excerpt: B. AREc32 Luciferase Reporter Assay
The AREc32 luciferase reporter assay allows for quantitative assessment of the endogenous activity of the Nrf2 transcription factor in cultured mammalian cells. AREc32 cells are derived from MCF-7 human breast carcinoma cells that were stably transfected with a reporter construct that contains the firefly luciferase gene located downstream of eight copies of the rat GSTA2 antioxidant response element (ARE) sequence (Wang et al., 2006; CXR Biosciences). Active NRF2 binds to the ARE sequences and increases expression of the firefly luciferase gene. To assess the NRF2-activating potential of the test compounds, AREc32 cells were plated in black 96-well plates at a density of 20,000 cells per well in triplicate in DMEM+10% FBS+0.8 mg/mL Geneticin and incubated at 37° C. with 5% CO2 in a humidified atmosphere. The next day, cells were treated with DMSO (vehicle) or test compound (concentration ranges of 0.4-200 nM or 2-1000 nM) for 19 hours. Luciferase activity was determined using the ONE-Glo Luciferase assay (Promega). The luminescence signal was measured on a BMG Pherastar microplate reader. The mean luminescence value from test compound-treated wells was normalized to that from DMSO-treated wells and was represented as fold-induction. Data were analyzed using GraphPad Prism version 6.00 for Windows, GraphPad Software, La Jolla Calif. USA. A non-linear regression curve with log (agonist) vs. response using a variable slope was used to fit the data. Where applicable, a maximum threshold value of 50-fold over DMSO was set. EC2× values were interpolated from the curve. EC2× corresponds to the concentration of test compound required to increase GST ARE Luciferase reporter activity by 2-fold.

hIL17 = assay: IL-17 release from differentiated primary human T-cells (IL-17A HTRF assay); type: cell-based; conditions: inhibition of IL-17A levels; primary human CD4+ T cells differentiated into Th17 cells, 46-hour incubation
Protocol: D. IL-17 Release from Differentiated Primary Human T-Cells and Cell Viability
Primary human cryopreserved CD4+ T Cells (Lonza, donor #0000402103) were plated in Lymphocyte Growth Medium-3 (LGM-3, Lonza) according to the manufacturer's recommendations, and allowed to recover for approximately 3 hours at 37° C. with 5% CO2 in a humidified atmosphere. After the recovery step, cells were collected by centrifugation and re-plated in 96-well plates at a density of ˜140,000 cells per well in LGM-3 medium that contained DMSO (vehicle) or test compound (2-500 nM or 4-1000 nM concentration range). Triplicate wells were plated for each test condition. DMSO (final concentration ≤0.1%) was used as the vehicle. Immediately after plating, CD4+ T cells were activated by adding Dynabeads Human T-Activator CD3/CD28 (Life Technologies; bead-to-cell ratio of 1:2.5) and differentiated into Th17 cells by adding a mixture of the following cytokines: transforming growth factor-β (TGF-β, 5 ng/mL), IL-6 (20 ng/mL), IL-23 (20 ng/mL), and […] (10 ng/mL). Undifferentiated control cells received only cytokine IL-2 (50 ng/mL). All human recombinant cytokines were purchased from R&D Systems. Following a 46-hour incubation at 37° C. with 5% CO2 in a humidified atmosphere, the plates were centrifuged for 3 minutes at 250×g, and half of the supernatant was transferred to a new plate to be used in the IL-17A assay (see below). Cell viability was assessed in the original plate using the CyQuant Direct Assay (Life Technologies). CyQuant values from test compound samples were normalized to those from DMSO-treated samples. The concentration of IL-17A in the supernatant was measured using the Homogeneous Time-Resolved Fluorescence (HTRF) assay (Cisbio Bioassays) according to the manufacturer's protocol. The assay was performed at room temperature in low volume, solid white 384-well plates (Greiner Bio-One). Samples and standards (serially-diluted human recombinant IL-17A (0 to 5,000 pg/mL concentration range; Cisbio Bioassays) were incubated with the anti-human IL-17A antibody conjugate for 16 hours and fluorescence was measured using a Pherastar FS microplate reader (BMG Labtech) in the HTRF mode (excitation at 337 nm and emission at 665 nm and 620 nm). IL-17A concentrations were assessed in duplicate aliquots of supernatant from each well resulting in a total of six readings per test condition. The 665 nm/620 nm signal ratio was calculated and the concentration of IL-17A in each sample was determined by interpolation from the standard curve. IL-17A values from test compound samples were normalized to those from DMSO-treated samples. Data were analyzed using GraphPad Prism version 6.00 for Windows (GraphPad Software, La Jolla Calif. USA). A non-linear regression analysis with log (inhibitor) vs. normalized response using a variable slope was applied to fit the data and determine the IC50 values for inhibition of IL-17A levels and cell viability.

[1] = tested on: IFNγ-induced Nitric Oxide production; assay: Nitric oxide production assay in RAW 264.7 mouse macrophages; type: cell-based; conditions: RAW264.7, suppression of IFNγ-induced NO production normalized to cell viability (WST-1), RAW 264.7, 24 hours IFNγ
Protocol: A. Nitric Oxide Production Assay and Cell Viability
RAW 264.7 mouse macrophages were plated in 96-well plates at a density of 30,000 cells per well in triplicate in RPMI 1640+0.5% FBS and incubated at 37° C. with 5% CO2 in a humidified atmosphere. The next day, cells were pre-treated with DMSO (vehicle) or test compound (concentration ranges of 0.4-200 nM or 2-1000 nM) for 2 hours and then treated with recombinant mouse IFNγ (R&D Systems) for 24 hours. Nitric oxide concentration in media was determined using the Griess reagent system (Promega). Cell viability was determined using WST-1 reagent (Roche). Values from test compound samples were normalized to those from DMSO/IFNγ-treated samples. IC50 values were determined based on the suppression of IFNγ-induced Nitric Oxide production normalized to cell viability.

SMILES | IC50 (human RORγ) [nM] | EC2x: concentration giving 2-fold induction of ARE luciferase reporter (NRF2) [nM] | IC50 (hIL17) [nM] | IC50 [1] [nM]
Cc1noc([C@]23CCC(C)(C)C[C@H]2[C@H]2C(=O)C=C4[C@@]5(C)C=C(C#N)C(=O)[C@@](C)(CO)[C@@H]5CC[C@@]4(C)[C@]2(C)CC3)n1 [Compound T45, (4R,4aR,6aS,6bR,8aS,12aS,12bR,14bS)-4-(hydroxymethyl)-4,6a,6b, 11,11,14b-hexamethyl-8a-(3-methyl-1,2,4-oxadiazol-5-yl)-3,13-dioxo-3,4,4a,5,6,6a,6b,7,8,8a,9,10,11,12,12a,12b,13,14b-octadecahydropicene-2-carbonitrile] | 165 | 47 | 17 | 6.9
COC(=O)[C@]12CCC(C)(C)C[C@H]1[C@H]1C(=O)C=C3[C@@]4(C)C=C(C#N)C(=O)[C@](C)(O)[C@@H]4CC[C@@]3(C)[C@]1(C)CC2 [Compound T6, methyl (4aS,6aR,6bS,8aR,9R,12aS,14aR,14bS)-11-cyano-9-hydroxy-2,2,6a,6b,9,12a-hexamethyl-10,14-dioxo-1,3,4,5,6,6a,6b,7,8,8a,9,10,12a,14,14a,14b-hexadecahydropicene-4a(2H)-carboxylate] | 115 | 30 | 32 | 9.2
CC1(C)CC[C@]2(C(=O)NCC(F)(F)F)CC[C@]3(C)[C@H](C(=O)C=C4[C@@]5(C)C=C(C#N)C(=O)[C@@](C)(O)[C@@H]5CC[C@]43C)[C@@H]2C1 [Compound T24, (4aS,6aR,6bS,8aR,9S,12aS,14aR,14bS)-11-cyano-9-hydroxy-2,2,6a,6b,9,12a-hexamethyl-10,14-dioxo-N-(2,2,2-trifluoroethyl)-1,3,4,5,6,6a,6b,7,8,8a,9,10,12a,14,14a,14b-hexadecahydropicene-4a(2H)-carboxamide] | 197 | 406 | 37 | 184
C[C@@H]1C(=O)C(C#N)=C[C@]2(C)C3=CC(=O)[C@@H]4[C@@H]5CC(C)(C)CC[C@]5(NC(=O)C(C)(F)F)CC[C@@]4(C)[C@]3(C)CC[C@@H]12 [Comparison Compound #4, reference compound] | 177 | 11 | 38 | 0.6
Cc1nnc([C@]23CCC(C)(C)C[C@H]2[C@H]2C(=O)C=C4[C@@]5(C)C=C(C#N)C(=O)[C@@](C)(O)[C@@H]5CC[C@@]4(C)[C@]2(C)CC3)o1 [Compound T44, (4S,4aR,6aS,6bR,8aS,12aS,12bR,14bS)-4-hydroxy-4,6a,6b, 11,11,14b-hexamethyl-8a-(5-methyl-1,3,4-oxadiazol-2-yl)-3,13-dioxo-3,4,4a,5,6,6a,6b,7,8,8a,9,10,11,12,12a,12b,13,14b-octadecahydropicene-2-carbonitrile] | 236 | 156 | 50 | 72.8
CC1(C)CC[C@]2(C(=O)NCC(F)(F)F)CC[C@]3(C)[C@H](C(=O)C=C4[C@@]5(C)C=C(C#N)C(=O)[C@@](C)(CO)[C@@H]5CC[C@]43C)[C@@H]2C1 [Compound T22, (4aS,6aR,6bS,8aR,9R,12aS,14aR,14bS)-11-cyano-9-(hydroxymethyl)-2,2,6a,6b,9,12a-hexamethyl-10,14-dioxo-N-(2,2,2-trifluoroethyl)-1,3,4,5,6,6a,6b,7,8,8a,9,10,12a,14,14a,14b-hexadecahydropicene-4a(2H)-carboxamide] | 256 | 103 | 50 | 13.5
CNC(=O)[C@]1(C)C(=O)C(C#N)=C[C@]2(C)C3=CC(=O)[C@@H]4[C@@H]5CC(C)(C)CC[C@]5(C(=O)OC)CC[C@@]4(C)[C@]3(C)CC[C@@H]12 [Compound T13, methyl (4aS,6aR,6bS,8aR,9S,12aS,14aR,14bS)-11-cyano-2,2,6a,6b,9,12a-hexamethyl-9-(methylcarbamoyl)-10,14-dioxo-1,3,4,5,6,6a,6b,7,8,8a,9,10,12a,14,14a,14b-hexadecahydropicene-4a(2H)-carboxylate] | 161 | 567 | 49 | 295
COC[C@]1(C)C(=O)C(C#N)=C[C@]2(C)C3=CC(=O)[C@@H]4[C@@H]5CC(C)(C)CC[C@]5(C(=O)OC)CC[C@@]4(C)[C@]3(C)CC[C@H]21 [Compound T20] | 223 | 175 | 21 | 15.6
